Experimental data taken from PubChem BioAssay (NCI).
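Briefly, cells in 96-well plates were exposed to five compound concentrations for 48 h, and endpoints were estimated by linear interpolation. Abbreviation: GI50, concentration required for 50% inhibition of growth. At the TGI there is no net growth.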

Assays:
Experiment in all cases: NCI-60 cell line screen, 48 h
U251 CNS = system: U251 CNS
HCT-116 colon = system: HCT-116 colon
IGROV1 ovarian = system: IGROV1 ovarian
NCI/ADR-RES ovarian = system: NCI/ADR-RES ovarian
PC-3 prostate = system: PC-3 prostate
COLO 205 colon = system: COLO 205 colon
OVCAR-4 ovarian = system: OVCAR-4 ovarian
HT29 colon = system: HT29 colon
SK-MEL-2 melanoma = system: SK-MEL-2 melanoma
SF-295 CNS = system: SF-295 CNS
HOP-62 NSCLC = system: HOP-62 NSCLC
NCI-H460 lung = system: NCI-H460 lung
UACC-62 melanoma = system: UACC-62 melanoma
OVCAR-8 ovarian = system: OVCAR-8 ovarian
SK-OV-3 ovarian = system: SK-OV-3 ovarian
T-47D breast = system: T-47D breast
LOX IMVI melanoma = system: LOX IMVI melanoma
SNB-75 CNS = system: SNB-75 CNS
786-0 renal = system: 786-0 renal
EKVX NSCLC = system: EKVX NSCLC
HOP-92 NSCLC = system: HOP-92 NSCLC
NCI-H226 lung = system: NCI-H226 lung
MOLT-4 leukemia = system: MOLT-4 leukemia
UACC-257 melanoma = system: UACC-257 melanoma
DU-145 prostate = system: DU-145 prostate
HCT-15 colon = system: HCT-15 colon
SNB-19 CNS = system: SNB-19 CNS
KM12 colon = system: KM12 colon
MALME-3M melanoma = system: MALME-3M melanoma

O=C(/C=C1\C(=O)N(Cc2ccccc2)c2ccccc21)c1ccc(OCCN2CCCCC2)cc1
TGI (U251 CNS): 3.35 µM | GI50 (HCT-116 colon): 1.3 µM | TGI (HCT-116 colon): 2.67 µM | GI50 (IGROV1 ovarian): 1.76 µM | TGI (IGROV1 ovarian): 3.55 µM | GI50 (NCI/ADR-RES ovarian): 3.14 µM | TGI (NCI/ADR-RES ovarian): 11.7 µM | GI50 (PC-3 prostate): 1.85 µM | TGI (PC-3 prostate): 3.92 µM | GI50 (COLO 205 colon): 1.77 µM | TGI (COLO 205 colon): 3.27 µM | GI50 (OVCAR-4 ovarian): 2.99 µM | TGI (OVCAR-4 ovarian): 11.3 µM | GI50 (HT29 colon): 1.82 µM | TGI (HT29 colon): 3.36 µM | GI50 (SK-MEL-2 melanoma): 11.7 µM | TGI (SK-MEL-2 melanoma): 24.3 µM | GI50 (SF-295 CNS): 12.7 µM | TGI (SF-295 CNS): 25.9 µM | GI50 (HOP-62 NSCLC): 18.4 µM | TGI (HOP-62 NSCLC): 32.4 µM | GI50 (NCI-H460 lung): 3.57 µM | TGI (NCI-H460 lung): 11.9 µM | GI50 (UACC-62 melanoma): 1.83 µM | TGI (UACC-62 melanoma): 3.62 µM | GI50 (OVCAR-8 ovarian): 2.13 µM | TGI (OVCAR-8 ovarian): 4.16 µM | GI50 (SK-OV-3 ovarian): 15 µM | TGI (SK-OV-3 ovarian): 28.2 µM | GI50 (T-47D breast): 1.6 µM | TGI (T-47D breast): 3.4 µM | GI50 (LOX IMVI melanoma): 1.71 µM | TGI (LOX IMVI melanoma): 3.14 µM | GI50 (SNB-75 CNS): 11.8 µM | TGI (SNB-75 CNS): 24.4 µM | GI50 (786-0 renal): 1.58 µM | TGI (786-0 renal): 3.06 µM | GI50 (EKVX NSCLC): 2.36 µM | TGI (EKVX NSCLC): 7.48 µM | GI50 (HOP-92 NSCLC): 1.36 µM | TGI (HOP-92 NSCLC): 2.77 µM | GI50 (NCI-H226 lung): 16.8 µM | TGI (NCI-H226 lung): 39.7 µM | GI50 (MOLT-4 leukemia): 1.87 µM | TGI (MOLT-4 leukemia): 6.44 µM | GI50 (UACC-257 melanoma): 12.9 µM | TGI (UACC-257 melanoma): 25.9 µM | GI50 (DU-145 prostate): 2.26 µM | TGI (DU-145 prostate): 5.05 µM | GI50 (HCT-15 colon): 1.71 µM | TGI (HCT-15 colon): 3.31 µM | GI50 (SNB-19 CNS): 2.26 µM | TGI (SNB-19 CNS): 5.99 µM | GI50 (KM12 colon): 5.9 µM | TGI (KM12 colon): 20.8 µM | GI50 (MALME-3M melanoma): 1.71 µM | TGI (MALME-3M melanoma): 3.39 µM
